Test system: Eimeria tenella GD strains
Experiment: Comparison with other anticoccidial drugs in chickens infected with Eimeria tenella GD (Embodiment 3)
Assay type: in vivo
Design: oocyst value: scale not given here
Conditions: for number of oocysts in cecum / lesion value / average weight gain: 7th day; for lesion value: cecum, scale 0-40; for survival rate / average weight gain / bloody feces scoring: chickens; for bloody feces scoring: 5 days after infecting, score 0-4; for oocyst value: converted per Table 2; for relative weight gain rate: vs non-infected non-drug control
From the text: 1-day-old Lingnan yellow chickens, purchased from Poultry Research Unit, Bureau of Animal Husbandry, Guangdong Academy of Agricultural Sciences, bred under coccidium-free environment, and subjected to experiment after no coccidium oocyst is found in feces through microscopic examination when the chickens are 14 days old. Perfect compound feed for chickens: prepared by Huizhou Yuantai Feed Co. Ltd., and containing no antibacterial or anticoccidial additive.
Eimeria tenella GD strains, having no resistance to various anticoccidial drugs. Breeding and amplifying in one chicken before the experiment, collecting fresh oocysts, sporulating, and preserving at 4° C. for later use.
Weighing the 14-day-old experiment chickens one by one, rejecting emaciated chickens or overweighted chickens, selecting healthy chickens of which the individual body weight difference is within 20 g, and dividing into 6 groups with 30 chickens in each group. Groups 1 and 2 are respectively a non-drug-applied and non-coccidium-killed control group and a coccidium-infected and non-drug-applied control group, and Groups 3-6 are respectively added with different anticoccidial drugs according to Table 4. Feeding with feed containing different drugs on the day of experiment grouping, enabling the chickens to freely take in the feed, and feeding the chickens until the experiment ends.
Except the non-coccidium-infected and non-drug-applied control group, giving each experiment chicken in each experiment group with 2.5×10^5 eimeria tenella sporulated oocysts via the crop on next day of the grouping day. During experiment, observing and recording the spirit, appetite, bloody feces situation, death count and the like of the chickens every day. Performing bloody feces scoring on the chickens in each group 5 days after infecting. On the 7th day, respectively weighing all the chickens in each group, then autopsying them, observing cecum lesions and counting the oocysts in the cecum.
The evaluation standard is the same with Embodiment 2.

SMILES | anticoccidial index (ACI) (5 ppm in feed) | number of oocysts in cecum (5 ppm in feed) | lesion value (5 ppm in feed) | survival rate (5 ppm in feed) | average weight gain (5 ppm in feed) | bloody feces scoring (5 ppm in feed) | oocyst value (5 ppm in feed) | relative weight gain rate (5 ppm in feed) | anticoccidial index (ACI) (125 ppm in feed) | number of oocysts in cecum (125 ppm in feed) | lesion value (125 ppm in feed) | survival rate (125 ppm in feed) | average weight gain (125 ppm in feed) | bloody feces scoring (125 ppm in feed) | oocyst value (125 ppm in feed) | relative weight gain rate (125 ppm in feed)
CO[C@@H]1[C@@H](OC)[C@H](C)[C@@](O)(CC(=O)O)O[C@H]1[C@H](C)[C@H]1O[C@@]2(CC[C@@](C)([C@H]3CC[C@@](C)([C@@H]4O[C@@H]([C@H]5O[C@](C)(O)[C@H](C)C[C@@H]5C)C[C@@H]4O[C@@H]4C[C@H](OC)[C@@H](OC)[C@H](C)O4)O3)O2)C[C@H](O)[C@H]1C [maduramicin] | 186.7 | 1.265 ×10^6/chicken | 6 | 100% | 168.4 g/chicken | 0 | 5 | 97.7% |  |  |  |  |  |  |  | 
Cc1cc(C)nc(O)n1.O=C(Nc1ccc([N+](=O)[O-])cc1)Nc1ccc([N+](=O)[O-])cc1 [nicarbazin] |  |  |  |  |  |  |  |  | 192.9 | 0 ×10^6/chicken | 0 | 100% | 160.5 g/chicken | 0 | 0 | 92.9%

Reference: patent publication US9096581B2, “Fluoroethyl thiamine or salts thereof and application thereof in preparation of anticoccidial drugs” (GUANGZHOU ORIGMOL FEED-ADDITIVE CO., LTD, priority 2012, dated 2015)
